Experiment [1] has as its target T1, 5-HT1c receptor (Bos taurus, UniProt A0AAA9SBU1).
T1 construct: natural pool of RNA-edited forms
T1 sequence (A0AAA9SBU1 33-457): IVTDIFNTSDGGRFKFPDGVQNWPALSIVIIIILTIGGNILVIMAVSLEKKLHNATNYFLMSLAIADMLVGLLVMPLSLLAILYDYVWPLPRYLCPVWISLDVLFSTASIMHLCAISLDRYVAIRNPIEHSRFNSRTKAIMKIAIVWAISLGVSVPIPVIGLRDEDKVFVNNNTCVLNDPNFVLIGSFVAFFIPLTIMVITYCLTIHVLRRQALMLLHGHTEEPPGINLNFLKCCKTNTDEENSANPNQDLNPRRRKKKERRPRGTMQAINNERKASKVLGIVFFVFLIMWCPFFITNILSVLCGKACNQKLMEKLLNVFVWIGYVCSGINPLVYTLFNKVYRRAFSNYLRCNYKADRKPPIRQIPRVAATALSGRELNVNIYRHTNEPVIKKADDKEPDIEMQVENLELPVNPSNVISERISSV
The experiment can be described thus: 5-HT1c receptor radioligand binding displacement assay ([3H]mesulergine, choroid plexus). Also noted: species or system beef. As to conditions: beef choroid plexus; tritiated mesulergine 2.0 nM; pH 7.4; 37° C., 15 min.
Method: (§1) Beef brain was removed immediately after slaughter, and choroid plexus were dissected over ice. […] The brain of each was immediately removed and the cerebral cortex was dissected over ice. Tissues were homogenized in 9 volumes of 0.32 mol/L sucrose and centrifuged at 1,000×g for 10 minutes. The supernatant was centrifuged at 17,000×g for 20 minutes. The pellet was suspended in 100 volumes of 50 mM Tris-HCL (pH7.4), incubated at 37° C. for 10 minutes and centrifuged at 50,000×g for 10 minutes, and the process was repeated three times. The final pellets were frozen at -70° C. and used within 2 weeks. Pellets were rehydrated with physiological buffer prior to use.
(§2) For 5-HT1c receptor assays increasing concentrations of experimental compound, 50 mM Tris HCl buffer pH[7.4], and tritiated mesulergine (2.0 nM) (^3 H ligand) were combined in polystyrene tubes at room temperature. The reaction was initiated by the addition of the resuspended choroid plexus tissue which had been preincubated at 37° C. for 20 minutes. The reaction mixture was incubated in a 37° C. water bath for 15 minutes.
(§3) The reactions were terminated by rapid filtration, (Brandel Cell Harvestor), through Whatman GF/B glass filters that had been presoaked in Tris buffer pH [7.4]. The filters were then washed 2 times with 5 ml of ice cold Tris buffer pH [7.4]. Washed filters were placed in scintillation vials and 10 ml RedySolv, (Brandel), was added and samples were counted in a Searle D-300 beta counter. Means and standard error statistics were calculated for triplicate experimental determinations in certain cases. Mean values were obtained from three or more separate determinations. The incubation time for the reaction mixture was 15 minutes at 37° C.

Another experiment concerns the target T2, 5-HT2 receptor (Rattus norvegicus, UniProt P14842).
T2 construct: The reaction was initiated by the addition of the resuspended rat cerebral cortex tissue; tissue Harlan Industries, Cumberland, Ind; (animals); host or cells: cerebral cortex of male Sprague-Dawley rats, washed membranes
The experiment can be described thus: 5-HT2 receptor radioligand binding displacement assay ([3H]ketanserin, cerebral cortex). Details: species or system rat (male Sprague-Dawley). As to conditions: tritiated ketanserin 1 nM, pH 7.4, 37° C., 30 min, values over 100 nM accumulated before concentration range was reduced to 0.1 to 100 nM. Here is the method: The assays were conducted by the following procedures.
5-HT1c selective compounds can be identified using the following biological assay procedures. Compounds having a selective affinity for the 5-HT1c receptor have a low IC50 in the 5-HT1c receptor assay and a higher IC50 in the 5-HT2 receptor assay.
I. Biological Reagent Preparation.
Beef brain was removed immediately after slaughter, and choroid plexus were dissected over ice. Male Sprague-Dawley rats weighing 125-150 g (Harlan Industries, Cumberland, Ind.) were killed by decapitation. The brain of each was immediately removed and the cerebral cortex was dissected over ice. Tissues were homogenized in 9 volumes of 0.32 mol/L sucrose and centrifuged at 1,000×g for 10 minutes. The supernatant was centrifuged at 17,000×g for 20 minutes. The pellet was suspended in 100 volumes of 50 mM Tris-HCL (pH7.4), incubated at 37° C. for 10 minutes and centrifuged at 50,000×g for 10 minutes, and the process was repeated three times. The final pellets were frozen at -70° C. and used within 2 weeks. Pellets were rehydrated with physiological buffer prior to use.
Radioligand binding assays for 5-HT1c and 5-HT2 receptors were conducted according to described methods. The assays can be conducted as described by Hoyer D., Functional correlates of serotonin 5-HT1 recognition sites, J. Receptor Res 8, 59-81 (1988) and Hoyer D., Engel G., Kalkman HO Molecular pharmacology of 5-HT1 and 5-HT2 recognition sires in rat and pig brain membranes: Radio-ligand binding studies with [^3 H]5-HT, [^3 H]8-OH-DPAT, (-) [^125 I] iodocyanopindolol, [^3 H]mesulergine and [^3 H]ketanserin, Eur. J. Pharmacol. 118, 13-23 (1985).
For 5-HT2 receptor assays increasing concentrations of experimental compound, 50 mM Tris HCl buffer pH [7.4], and tritiated ketanserin (1 nM) (^3 H ligand) were combined in polystyrene tubes at room temperature. The reaction was initiated by the addition of the resuspended rat cerebral cortex tissue which had been preincubated at 37° C. for 20 minutes. The reaction mixture was incubated in a 37° C. water bath for 30 minutes.
The above assays were modified after a number of compounds had been screened to accomodate the unexpectedly high potency of the compounds of this invention in the 5-HT1c assay. The concentration range of the experimental compound in the assays was changed from [0.1 to 1000 (nM)] to [0.1 to 100 (nM)] to optimize the use of reagents and analysis time.
The reactions were terminated by rapid filtration, (Brandel Cell Harvestor), through Whatman GF/B glass filters that had been presoaked in Tris buffer pH [7.4]. The filters were then washed 2 times with 5 ml of ice cold Tris buffer pH [7.4]. Washed filters were placed in scintillation vials and 10 ml RedySolv, (Brandel), was added and samples were counted in a Searle D-300 beta counter. Means and standard error statistics were calculated for triplicate experimental determinations in certain cases. Mean values were obtained from three or more separate determinations. The incubation time for the reaction mixture was […] at 37° C.
The results of the evaluation of certain compounds of the present invention in the 5-HT1c and 5-HT2 binding assays are set forth below in Table II.

Experiment [2] concerns 5-HT1c receptor. The experiment can be described thus: 5-HT1c receptor radioligand binding displacement assay ([3H]mesulergine, choroid plexus). Also noted: species or system beef. The following applies: 5-HT1c versus 5-HT2, from Table II.
Method: as §1, §2, §3

Structures can show the parent of a compound that is named as a salt. Bounds are passed on as bounds.

T2 sequence (P14842 whole entry): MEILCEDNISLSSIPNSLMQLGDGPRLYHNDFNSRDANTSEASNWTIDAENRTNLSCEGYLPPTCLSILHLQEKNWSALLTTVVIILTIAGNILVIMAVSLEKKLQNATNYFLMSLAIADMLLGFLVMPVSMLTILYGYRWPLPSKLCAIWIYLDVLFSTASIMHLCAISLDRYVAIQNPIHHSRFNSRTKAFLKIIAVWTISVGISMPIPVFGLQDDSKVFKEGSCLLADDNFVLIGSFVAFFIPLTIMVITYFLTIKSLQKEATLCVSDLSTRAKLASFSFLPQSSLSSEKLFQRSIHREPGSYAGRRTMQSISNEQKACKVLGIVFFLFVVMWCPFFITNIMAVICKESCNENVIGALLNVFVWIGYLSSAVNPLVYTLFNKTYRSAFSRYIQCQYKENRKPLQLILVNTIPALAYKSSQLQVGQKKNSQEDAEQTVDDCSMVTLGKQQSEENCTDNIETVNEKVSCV

As for `COc1cccc2c3c([nH]c12)C(Cc1cccc2ccccc12)NCC3` (racemic) [Example 8, (±) 8-methoxy-1-(1-naphthalenylmethyl)-1,2,3,4-tetrahydro-9H-pyrido[3,4-b]indole], the IC50 at 5-HT1c receptor [1] worked out at 63 nM; on 5-HT2 receptor it was 65 nM.
Regarding `CC(C)(C)c1ccc2[nH]c3c(c2c1)CCNC3Cc1cccc2ccccc12` (racemic) [Example 15, (±) 6-(1,1-dimethylethyl)-1,2,3,4-tetrahydro-1-(1-naphthalenylmethyl)-9H-pyrido[3,4b]indole], the half-maximal inhibitory concentration (IC50) at 5-HT1c receptor [1] was 11 nM; at 5-HT2 receptor, > 100 nM. In the experiment on 5-HT1c receptor [2], the “5-HT1c selectivity (low IC50 in 5-HT1c assay, higher IC50 in 5-HT2 assay)” value is recorded as “particularly 5-HT1c selective”.
Consider `Brc1ccc2[nH]c3c(c2c1)CCNC3Cc1cccc2ccccc12` (racemic) [Example 9, (±) 6-bromo-1-(1-naphthalenylmethyl)-1,2,3,4-tetrahydro-9H-pyrido[3,4-b]indole], for which the values for the IC50 at 5-HT1c receptor [1] and on 5-HT2 receptor were 27 nM and 87 nM, respectively.
Taken in the same sequence, the figures for `Cc1ccc2c3c([nH]c2c1Br)C(Cc1cccc2ccccc12)NCC3` (racemic) [Example 10, (±) 7-methyl-8-bromo-1-(1-naphthalenylmethyl)-1,2,3,4-tetrahydro-9H-pyrido[3,4-b]indole hydrochloride] were 44 nM and 142 nM.
With `CC(C)c1ccc2[nH]c3c(c2c1)CCNC3Cc1cccc2ccccc12` (racemic) [Example 16, (±) 6-(1-methylethyl)-1,2,3,4-tetrahydro-1-(1-naphthalenylmethyl)-9H-pyrido[3,4b]indole], the half-inhibitory concentration (IC50) on 5-HT1c receptor [1] is 9 nM; at 5-HT2 receptor, > 100 nM. In addition, the “5-HT1c selectivity (low IC50 in 5-HT1c assay, higher IC50 in 5-HT2 assay)” value in the experiment with 5-HT1c receptor [2] is on record as “particularly 5-HT1c selective”.
In the case of `c1ccc2c(CC3NCCc4c3[nH]c3c4ccc4ccccc43)cccc2c1` (racemic) [Example 14, (±) 7,8,9,10-tetrahydro-10-(1-naphthalenylmethyl)-11H-benzo[g]pyrido[3,4-b]indole], the results for the 50% inhibitory concentration (IC50) at 5-HT1c receptor [1] and at 5-HT2 receptor were 61 nM and > 100 nM, respectively.
`Cc1ccc2[nH]c3c(c2c1)CCNC3C(C)c1cccc2ccccc12` (racemic) [Example 3, (±) 6-methyl-1-(1-naphthalenyl-1-ethyl)-1,2,3,4-tetrahydro-9H-pyrido[3,4-b]indole]: the values for the half-maximal inhibitory concentration (IC50) on 5-HT1c receptor [1] and at 5-HT2 receptor were 6 nM and > 100 nM, respectively.
Consider `c1ccc2c(CC3NCCc4c3[nH]c3ccc(C5CCCCC5)cc43)cccc2c1` (racemic) [Example 11, (±) 6-cyclohexyl-1-(1-naphthalenylmethyl)-1,2,3,4-tetrahydro-9H-pyrido[3,4-b]indole hydrochloride], for which the figures for the IC50 on 5-HT1c receptor [1] and on 5-HT2 receptor were 189 nM and > 100 nM, respectively.
For `Cc1cc(Br)c2[nH]c3c(c2c1)CCNC3Cc1cccc2ccccc12` (racemic) [Example 7, (±) 6-methyl-8-bromo-1-(1-naphthalenylmethyl)-1,2,3,4-tetrahydro-9H-pyrido[3,4-b]indole], the IC50 on 5-HT1c receptor [1] was 60 nM; on 5-HT2 receptor, 247 nM.
Turning to `Brc1cccc2c3c([nH]c12)C(Cc1cccc2ccccc12)NCC3` (racemic) [Example 6, (±) 8-bromo-1-(1-naphthalenylmethyl)-1,2,3,4-tetrahydro-9H-pyrido[3,4-b]indolehydrochloride], the half-inhibitory concentration (IC50) was 13.2 nM on 5-HT1c receptor [1] and 40 nM on 5-HT2 receptor.
With `COc1ccc(CC2NCCc3c2[nH]c2ccc(C)cc32)c2ccccc12` (racemic) [Example 1, (±) 6-methyl-1-(1-(4-methoxynaphthalenyl)methyl)-1,2,3,4-tetrahydro-9H-pyrido[3,4-b]indole hydrochloride], the IC50 at 5-HT1c receptor [1] stood at 6.4 nM; at 5-HT2 receptor, 56.1 nM.
Taken in the same sequence, the figures for `Cc1ccc2c(c1)c1c(n2C)C(Cc2cccc3ccccc23)NCC1` (racemic) [Example 17, (±) 6,9-dimethyl-1,2,3,4-tetrahydro-1-(1-naphthalenylmethyl)-9H-pyrido[3,4-b]indole hydrochloride] were 23 nM and > 100 nM.
Taken in the same sequence, the figures for `Cc1ccc2[nH]c3c(c2c1)CCN(C)C3Cc1cccc2ccccc12` (racemic) [Example 12, (±) 2,6-dimethyl-1-(1-naphthalenylmethyl)-1,2,3,4-tetrahydro-9H-pyrido[3,4-b]indole hydrochloride] were 54 nM and > 100 nM.
`Cc1ccc2[nH]c3c(c2c1F)CCNC3Cc1cccc2ccccc12` (racemic) [Example 13, (±) 5-fluoro-6-methyl-1-(1-naphthalenylmethyl)-1,2,3,4-tetrahydro-9H-pyrido[3,4-b]indole]: the figures for the 50% inhibitory concentration (IC50) on 5-HT1c receptor [1] and on 5-HT2 receptor were 16 nM and > 100 nM, respectively.
Taken in the same sequence, the figures for `Cc1ccc2[nH]c3c(c2c1)CCNC3Cc1cccc2ccccc12` (racemic) [Example 5, (±) 6-methyl-1-(1-naphthalenylmethyl)-1,2,3,4-tetrahydro-9H-pyrido[3,4-b]indole hydrochloride] were 30 nM and 267 nM.
On to `Cc1ccc2[nH]c3c(c2c1)CCN[C@H]3Cc1cccc2ccccc12` [Example 18, (-)-(S)-6-methyl-1,2,3,4-tetrahydro-1-(1-naphthalenylmethyl)-9H-pyrido[3,4-b]indole hydrochloride], for which the IC50 at 5-HT1c receptor [1] was < 100 nM; at 5-HT2 receptor, 108 nM.
Taken in the same sequence, the figures for `CC(C)c1ccc2[nH]c3c(c2c1)CCNC3C(C)c1cccc2ccccc12` (racemic) [Example 4, hydrochloride] were 14 nM and > 100 nM.

Values taken from patent US5538981A, “Tetrahydro-pyrido-indole” (Eli Lilly and Company, priority 1995, dated 1996).
